Laboratory results reported in PubChem BioAssay (NCI).
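48-hour exposure; five concentrations; linearly interpolated endpoints. GI50: concentration for 50% inhibition of growth. At the TGI there is no net growth.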 Where a SMILES comes first, the peptide text is derived from it.

Columns and labels:
Experiment in all cases: DTP human tumour cell line panel, 48 h
A498 renal = test system: A498 renal
KM12 colon = test system: KM12 colon
NCI-H226 lung = test system: NCI-H226 lung
OVCAR-3 ovarian = test system: OVCAR-3 ovarian
SF-268 CNS = test system: SF-268 CNS
SF-295 CNS = test system: SF-295 CNS
SF-539 CNS = test system: SF-539 CNS
SK-MEL-28 melanoma = test system: SK-MEL-28 melanoma
NCI-H522 lung = test system: NCI-H522 lung
MCF7 breast = test system: MCF7 breast

SMILES | TGI (A498 renal) [µM] | TGI (KM12 colon) [µM] | TGI (NCI-H226 lung) [µM] | TGI (OVCAR-3 ovarian) [µM] | TGI (SF-268 CNS) [µM] | TGI (SF-295 CNS) [µM] | TGI (SF-539 CNS) [µM] | TGI (SK-MEL-28 melanoma) [µM] | TGI (NCI-H522 lung) [µM] | GI50 (SF-295 CNS) [µM] | GI50 (SF-539 CNS) [µM] | GI50 (SK-MEL-28 melanoma) [µM] | GI50 (KM12 colon) [µM] | GI50 (SF-268 CNS) [µM] | TGI (MCF7 breast) [µM] | GI50 (A498 renal) [µM] | GI50 (MCF7 breast) [µM] | GI50 (NCI-H522 lung) [µM] | GI50 (OVCAR-3 ovarian) [µM] | GI50 (NCI-H226 lung) [µM]
CCC(C)C1NC(=O)C2CCCN2C(=O)CNC(=O)C(C)NC(=O)C(Cc2ccccc2)NC(=O)C(C(C)C)NC1=O (configuration not stated) (cyclo(GPIVFA); configuration not given here) | > 100 | > 100 | > 100 | > 100 | > 100 | > 100 | > 100 | > 100 |  |  |  |  |  |  |  |  |  |  |  | 
Clc1ccc2nc(-c3ccccc3)nc(Cl)c2c1 | > 100 | > 100 | > 100 | > 100 | > 100 | > 100 | > 100 | > 100 |  |  |  |  |  |  |  |  |  |  |  | 
CC1=C(Cl)C=CP(=O)(OC(C)C)C1 (configuration not stated) | > 100 | > 100 |  | > 100 | > 100 | > 100 | > 100 | > 100 | 87.7 |  |  |  |  |  |  |  |  |  |  | 
O=[N+]([O-])c1cc(Cl)ccc1OCc1ccccc1 | > 100 | > 100 |  | > 100 | > 100 | > 100 | > 100 | > 100 |  |  |  |  |  |  |  |  |  |  |  | 
CCCCc1n(Cc2ccc3ccccc3c2)cc[n+]1Cc1ccc2ccccc2c1 |  |  |  |  |  | 2.65 | 2.74 | 2.69 |  | 1.3 | 1.4 | 1.32 |  |  |  |  |  |  |  | 
C=CC/C(=C\COP(=O)(OCc1ccc([N+](=O)[O-])o1)N(C)CCCCCl)CC/C=C(\C)CCC=C(C)C (configuration not stated) |  | > 100 |  |  | 29 | 3.21 | 39.4 | 32.9 |  | 0.0171 | 22.5 | 17.2 | 9.94 | 12 |  |  |  |  |  | 
CCCCN(CCCC)CCC(O)c1cc2c(Cl)cc(Cl)cc2c2cc(C(F)(F)F)ccc12 (configuration not stated) | 13.8 |  |  | 23.7 | 24.4 | 25.4 | 30.1 | 33.1 | 32.9 |  |  |  |  |  | 24.9 |  |  |  |  | 
COC(=O)C1C=NNC1C(=O)OC (configuration not stated) | > 100 | > 100 | > 100 | > 100 | > 100 | > 100 | > 100 |  | > 100 |  |  |  |  |  |  |  |  |  |  | 
CCN(CC)C(=O)N1CCN(C=S)CC1 | > 100 | > 100 | > 100 | > 100 | > 100 |  | > 100 | > 100 | > 100 |  |  |  |  |  |  |  |  |  |  | 
O=C(O)CCc1c2ccc(=O)c(O)c-2oc2c(O)c(O)ccc12 | > 100 | > 100 |  | > 100 | > 100 | 82.5 |  | > 100 | > 100 |  |  |  |  |  | 29.3 |  |  |  |  | 
Oc1cccc(/C=N/Nc2nnc(N/N=C/c3cccc(O)c3)c3ccccc23)c1 |  | > 100 | 30.7 | 35.8 | > 100 | 31.8 | 34.6 | 60.2 | 53.1 |  |  |  |  |  | > 100 |  |  |  |  | 
C=C1C2CC(OC(C)=O)C3(C)C(c4ccoc4)OC(=O)[C@@H](O)[C@]13OC1C[C@H](OC(C)=O)C(C)(C)[C@H](CC(=O)OC)[C@]12C (some centres not stated) | > 100 | > 100 | > 100 | > 100 |  | > 100 | > 100 | > 100 |  |  |  |  |  |  |  |  |  |  |  | 
O=[N+]([O-])c1ccccc1C=NC12CC3CC(CC(C3)C1)C2 | > 100 | > 100 | > 100 | > 100 | > 100 | > 100 | > 100 | > 100 | > 100 |  |  |  |  |  |  |  |  |  |  | 
CCCCNC(=O)c1cc(NCc2cc(O)ccc2O)ccc1O | > 100 | 57.7 |  | 17.1 | 23.6 | > 100 | 17.1 | 30.3 | 2.94 | 46.2 | 4.16 | 16.3 | 14.4 | 10.3 | 39.8 | 41.1 | 12.4 | 1.32 | 4.8 | 
COC(=O)N/N=C(/CCC(=O)Nc1ccc(C)c(C)c1)CC(=O)C(C)(C)C |  | > 100 | > 100 | > 100 | > 100 | > 100 | > 100 | > 100 | > 100 |  |  |  |  |  |  |  |  |  |  | 
O=C1Nc2ccccc2/C1=C\c1nc(C2CCN(S(=O)(=O)c3ccc(F)cc3)CC2)n2ccccc12 | > 100 |  | 21.1 | 11.1 | 13.8 | 11.2 | 3.07 | > 100 | 12 | 2.25 | 1.39 | > 100 |  | 1.9 | > 100 | 17.1 | 5.72 | 1.94 | 2.72 | 2.32
CC1C[C@]2(C[C@@H](C)C(=O)O2)O[C@@H]2CC3(C)[C@@H]4CCC5C(C)(C)OC(=O)C[C@H]6OO[C@]4(CC[C@]3(C)C12)CC56O (some centres not stated) |  |  | > 100 | > 100 |  | > 100 | > 100 | > 100 | > 100 |  |  |  |  |  |  |  |  |  |  | 
CCOC(=O)[C@H]1Nc2ccc([N+](=O)[O-])cc2C2c3ccccc3CC21 (some centres not stated) |  | > 100 | 55.1 | 23.1 | 38.5 | 31.2 | 31.8 | 31.9 | 29.3 |  |  |  |  |  |  |  |  |  |  | 
CC(=O)[CH-]C(=O)c1ccccc1.CC(=O)[CH-]C(=O)c1ccccc1.Cl.[O-]c1ccccn1.[O-]c1ccccn1.[Ti+4] | > 100 | > 100 | > 100 | > 100 | > 100 | > 100 | > 100 | > 100 | > 100 | 47.6 | > 100 | > 100 | > 100 | > 100 |  | > 100 |  | > 100 | > 100 | > 100
CC(/C=C/c1ccccc1)=N\NC(N)=S | 44.5 | > 100 | > 100 | 66.8 | > 100 | 61.2 | 94.5 | > 100 |  |  |  |  |  |  | > 100 |  |  |  |  | 
CC12CO[C@@](C)(CC(S(=O)(=O)c3ccccc3)C1)O2 (some centres not stated) |  | > 100 |  | > 100 | > 100 | > 100 | > 100 | > 100 | > 100 |  |  |  |  |  |  |  |  |  |  | 
O=S1(=O)CCCS(=O)(=O)C(c2ccccc2)=C1c1ccccc1 | > 100 | 79 | > 100 | > 100 | > 100 |  | > 100 | > 100 | 89.9 |  |  |  |  |  |  |  |  |  |  | 
Cc1ccc(-c2cc(=O)c3cc(C)c(C)c(C(=O)O)c3o2)cc1N |  | > 100 | > 100 | > 100 | > 100 | > 100 | > 100 | > 100 | > 100 |  |  |  |  |  |  |  |  |  |  | 
